In patent EP1698638A1, “Lipopeptides having pharmaceutical activity” (Technische Universität Berlin, priority 2005, dated 2006):

Experiments:
Assay type in all cases: cell-based
[1] = test system: Streptomyces versicolor; assay: disk diffusion assay on LB-agar plates; details: 10 µg in 30 µL 50% MeOH per disk
Experimental: (§1) The antifungal activity of the compounds according to the present invention, in particular hassallidin A and hassallidin B, was verified for Aspergillus fumigatus and Candida albicans by minimum inhibitory concentration (MIC) data in a serial dilution test. For each fungus six testing wells of a microtiter plate were prepared with 240 µL medium (Sigma RPMI-1640), 10 µL inoculum suspension and 50 µL fungicide solution (50% MeOH) of different concentrations. Inoculum preparation was carried out by guideline of NCCLS.^25 The fungicide solution preparation took place in a series of twofold dilutions from a stock solution of 92 µg/mL starting with 4.6 µg/50 µL down to 0.14 µg/50 µL. One well was prepared without antifungal agent for unhindered growth as control. The microtiter plates were incubated for Candida albicans and Aspergillus fumigatus at 35 °C for 24 h and 48 h, respectively. Tests were run in triplicates. Inhibition of growth was assessed by comparing the fungal growth of the test samples with the control well by determination of optical density at 595 nm in a microplate reader. The concentration of the well at highest dilution that was still free from growth was assigned the minimum inhibitory concentration (MIC in µg/mL). […] No activities were observed by using Bacillus subtilis, Streptomyces versicolor or Escherchia coli in disk diffusion assays on LB-agar plates with 10 µg hassallidin A in 30 µL 50% MeOH per disk.

[2] = test system: Escherchia coli; assay: disk diffusion assay on LB-agar plates; details: 10 µg in 30 µL 50% MeOH per disk
Experimental: as §1

[3] = test system: Bacillus subtilis; assay: disk diffusion assay on LB-agar plates; details: 10 µg in 30 µL 50% MeOH per disk
Experimental: as §1

[4] = test system: Cryptococcus neoformas RKI 18/05; assay: microdilution assay (NCCLS), inhibitory concentration (IC); details: RPMI-1640 medium
Experimental: More specifically, a determination of inhibitory concentration (IC) of hassallidin A and hassallidin B for various fungi, Candida species and Candida strains were performed with different media (RPMI-1640 or SAB or AM3) in a microdilution assay by following the guidelines in NCCLS documents M^38-P^25 and M27-A2^26 carried out as follows Each substance was dissolved with 100% dimethyl sulfoxide (Serva, Heidelberg, Germany) to give a stock solution of 3.2 mg/ml followed by nine log2 dilution steps with the solvent. This served as a 100-fold concentrated dilution series ranging from 1.6 mg/ml to 0.003 mg/ml of the test substance. The final concentration of the test substance was 16 µg/ml to 0.031 µg/ml.
Therefore the 100-fold concentrated dilution series (with 100% DMSO) was diluted to the final concentration by two dilution steps: • (1) Each concentration of the 100-fold concentrated substance was diluted with test medium for 1:50 (for ex.: adding of 13 µl of the test substance to 637 µl test medium). • (2) 100 µl of each 1:50 diluted concentration was filled in a row of wells of a microtitre plate. One well was without the substance but with the 1:50 diluted solvent serving as growth control.
A further 1:2 dilution of the antifungal was made by the inoculation of each well with 100 µl of the test organism, which was suspended in the test medium. The remaining well of the row was used for sterility control of the medium. The inoculum was strictly prepared according the NCCLS^25 guidelines, resulting in […] for Candida-species and Cryptococcus neoformans. For hyphomycetes CFU's were tenfold higher (see NCCLS). ^26 The growth of the hyphomycetes respectively the inhibition was measured by visual reading with the help of a reading mirror; scoring was done according to NCCLS :^26 score 0 corresponds to a optical clear well or an IC95 or higher, score 1 corresponds to an inhibition of 80 percent (IC80) and the score 2 of the NCCLS definition corresponds to the IC50 values in the tables. […] The percent inhibition IC50, IC80 or IC95 (corresponding the scores of 2, 1 and 0) was calculated by the following formula: (100−[(ODof the well−ODof the medium)] × 100)/((ODof the growth control−ODof the medium).) [formula] Table 3. Test series for determining IC values of hassallidin A and B in different media using Candida albicans and Candida krusei. The IC values were measured after 24 h and 48 h at 30 °C.

[5] = test system: Jurkat ATCC-TIB-152 (human acute T cell leukemia) celline; assay: cytotoxicity, cell viability by XTT test (1st test)
Experimental: Furthermore, the compounds according to the present invention were tested in relation to their activity against cancer cell lines. They were tested for cytotoxicity by determining the IC50-values. The IC50-value was determined by the procedure discrided in Filip P, Anke T, Sterner O, 5-(2'-oxoheptadecyl)-resorcinol and 5-(2'-oxononadecyl)-resorcinol, cytotoxic metabolites from a wood-inhabiting basidiomycete, ZNaturforsch [C]. 2002 Nov-Dec;57(11-12):1004-8. Sample preparation was carried out as follows: 1 st test The compound (hassalidin B) (20 µg) was dissolved in 4 µl DMSO and 16 µl H2O to give a concentration of 1 mg/ml. 1 µl of this solution and 0,5 µl of this solution were used to inoculate 200 µl culture medium each, thus making up a concentration of hassallidin B of 5µg/ml and 2,5 µ/ml, respectively. Thereafter 68 µl H2O were added to 17 µl of the solution of 1 mg/ml hassalidin B to give a concentration of 200 µg/ml, and again 1 µl and 0,5 µl of this solution were used to inoculate 200 µl of culture medium each thus making up a final concentration of hassallidin B of 1 µg/ml and 0,5 µg/ml, respectively. […] Cell viability of cell growing was measured by the XTT test (Boehringer, Mannheim/Roche) as discribed in the product information. […]

How did the “activity in disk diffusion assay” value [1] turn out when hassallidin A was run?
Its value is “No activities”.

What about the “activity in disk diffusion assay” value [2] of the same substance?
Its value is “No activities”.

And the “activity in disk diffusion assay” value [3]?
Its value is “No activities”.

And the IC50 ([4]; 35°C/24h, visual)?
Its IC50 is 4 (visual) µg/mL.

What about the IC80 ([4]; 35°C/24h, visual) of the same substance?
The IC80 was 4 (visual) µg/mL.

And the IC95 ([4]; 35°C/24h, visual)?
The IC95 was 4 (visual) µg/mL.

And the IC50 ([4]; 35°C/48h)?
The IC50 was 4 µg/mL.

What about the IC80 ([4]; 35°C/48h) of the same substance?
The IC80 was 4 µg/mL.

What about the IC95 ([4]; 35°C/48h) of the same substance?
The IC95 was 4 µg/mL.

Which IC50-value [5] does the source give for hassallidin B here?
The IC50-value was 0.2 µg/mL.
